Source: patent US5626883A, “Ascorbic acid compositions providing enhanced human immune system activity” (priority 1994, dated 1997)

What was measured:
[1] = system: skin tumors and estrogen-induced renal tumors; settings: in vivo; cited from earlier work
[2] = clinical; settings: human, in vivo, 60 mg/kg
Method: (§1) Lymphocytes were prepared from fresh heparinized peripheral venous blood by Ficoll-Hypaque density gradient centrifugation (Litton Bionetics, Rockville, Md.). Cells were washed three times with Hanks' balanced salt solution (HBSS), and resuspended to a concentration of 10×10^6 cells/ml in a complete medium (CM), that consisted of RPMI-1640 supplemented with 10% fetal calf serum and 1% antibiotics (100 U penicillin and 100 μg/ml streptomycin) and within an hour of isolation cells were used for different assays.

[3] = system: peripheral blood leukocyte (PBL); test: clinical; settings: human, in vivo, 0 min
Method: as §1

[4] = system: K562 tumor target cells; test: NK cell activity with repeated administration every four hours, Example 2; format: in vivo, human; settings: 15 mg/kg ascorbic acid or biologically equivalent amount every four hours, twenty-four hours
Method: (§2) Chromium-release Assay for measuring NK cell activity:
(§3) A standard 4-hr ^51 Cr-release assay was employed. Briefly, 1×10^4 ^51 Cr-labelled K562 tumor target cells in
(§4) 0.1 ml CM were added to different wells of a microtiter plate. Effector cells were then pipetted into quadruplicate wells to give effector: target (E:T) ratios of 6:1, 12:1, 25:1 and 50:1. After a 4-hr incubation at 37° C., the microtiter plates were centrifuged at 1400 rpm for 5 min and 0.1 ml of supernatant from each well was collected and counted in a gamma counter. The percentages of isotope released were calculated by the following formula: [formula]
(§5) Total release was measured by adding […] Triton X-100 to designated wells. Lytic units (LU) were calculated from effector titration curves. One LU was defined as the number of effector cells required to achieve 20% lysis.

[5] = clinical; settings: human, plasma, 60 mg/kg
Method: Twenty-two healthy subjects were randomly selected for this example. The subjects ranged in age from 20 to 24 years, with a mean of 22 years. The subjects had not ingested any medications for at least two weeks before participation in the study.
Clearance and the uptake of ascorbic acid was measured in the plasma and mononuclear cell, respectively.
Briefly described, 5×10^6 cells were suspended in 0.2 ml of PBS, sonicated for 30 seconds, and 1 ml of 5% trichloroacetic acid (TCA) was added. The mixture was centrifuged to remove the precipitates and the supernatant was used to measure the level of ascorbic acid. From the mixture, 1.2 ml of this supernatant or 0.5 ml plasma was mixed with 0.4 ml of Dinitrophenyl-hydrazine-Thiourea-Copper (DCT) reagent, incubated at 37° C. for 3 hours, then transferred to an ice-water bath for 10 minutes. Then 2 ml of cold 12M H2 SO4 was added and the mixture was kept at room temperature for 20 min.

[6] = system: NK cell population; test: NK cell population and sub-populations by flow cytometry, Example 1; format: in vivo, human; settings: 0 and 24 hours post treatment; Anti-CD56 and Anti-CD3
Method: NK cell subset enumeration was carried out in ascorbate-treated and non-treated cell populations. A single laser flow cytometer (Epics Profile: Coulter Epics, Inc., Hialeah, Fla.), which discriminates forward and right-angle light scatter, as well as two colors, was used with an appropriate software package (Quad Stat: Coulter). Mononuclear cell populations were determined by two-color direct immunofluorescence, by using a whole-blood staining technique with the appropriate monoclonal antibody and flow cytometry. […]
lymphocyte markers, bit maps were set on the lymphocyte population of the forward-angle light scatter versus a 90° light scatter histogram. The percentage of positively stained cells for each marker pair, as well as the percentage of doubly stained cells, was determined. Estimates of the absolute numbers of lymphocyte positive for the respective surface markers were determined by multiplying peripheral lymphocyte cell count by the percentage of cells positive for each surface marker.
Total NK cell population and its sub-populations were also examined in this example. The total NK cell population and its sub-populations were determined both post-treatment with ascorbic acid alone and post-treatmentwith the formulation of the present invention by flow cytometry, using Anti-CD56 and Anti-CD3 monoclonal antibodies, respectively.

[7] = system: K562 tumor target cells; test: NK cell cytotoxic activity (4-hr 51Cr-release assay) before and after oral administration to healthy subjects, Example 1; format: in vivo, human
Method: This example compares the effect of ascorbic acid and the formulation of the present invention on NK cell activity, NK cell population, and peripheral blood leukocyte (PBL) uptake.
as §1, §2, §3, §4, §5
In FIG. 1A the NK cell activity is represented in lytic units (LU) on the vertical axis with time being represented in hours on the horizontal axis.
In FIG. 1B, the hollow bars represent the subject's NK cell activity before administration of either ascorbic acid alone or the formulation of the present invention.

[8] = system: glutathione; settings: 500 mg/day; cited from earlier work
[9] = system: breast and gastric cancer; settings: cited from earlier work

- concentration at 1 h [2]: 64 ng/mL
- concentration at 2 h [2]: 101 ng/mL
- concentration at 4 h [2]: 95 ng/mL
- concentration at 8 h [2]: 79 ng/mL
- concentration at 24 h [2]: 74 ng/mL
- concentration at 48 h [2]: 49 ng/mL
- mean (M±SD) uptake of ascorbic acid by 5×10^6 white blood cells [3]: 5.1 μg/dl
- concentration at 1 h [5]: ~42000 ng/mL
SMILES: O=C1O[C@H]([C@@H](O)CO)C(O)=C1O [ascorbic acid, 3-oxo-1-gulofuranolactone]
- tumor regression [1]: causes regression of skin tumors and estrogen-induced renal tumors in vivo
- NK cell activity [4]: repeated suppression of NK cell activity
- percentages of total NK cell population, or its sub-populations [6]: no significant effect
- NK cell activity ([7]; 60 mg/kg ascorbic acid, twenty-four hours post-administration, FIG. 1A): 90 LU
- NK cell activity ([7]; 60 mg/kg, forty-eight hours, FIG. 1A): declined to near pre-administration levels
- NK cell activity change ([7]; 60 mg/kg, one to two hours after administration, FIG. 1A): transitory decrease in NK cell activity
- time of recovery of NK cell activity to pre-administration levels ([7]; 60 mg/kg, post-administration, FIG. 1A): about four
- period of inhibition of NK cell activity ([7]; early transient phase, followed by enhancement): two to four
- overall suppression of NK cell activity (summary) ([7]; shortly after administration): transient suppression or inhibition of NK cell activity
- suppression of NK cell activity ([7]; zero to four hours post-administration, FIG. 1A): transient suppression of NK cell activity
- plasma concentrations of glutathione [8]: increases plasma concentrations of glutathione
- antitumor activity [9]: demonstrates antitumor activity against breast and gastric cancer
